Measured values reported in patent US11007282B2, “Compositions for circulatory system visualization” (DICRONIS SAGL, priority 2015, dated 2021).

Tests used:
[1] = in vivo; cited from earlier work
[2] = In vitro fluorescence quantification of PVP-ICG formulations (Kollidon 17 PF), microplate reader; conditions: λEx/Em 770/818 nm

CC1(C)C(/C=C/C=C/C=C/C=C2\N(CCCCS(=O)(=O)O)c3ccc4ccccc4c3C2(C)C)=[N+](CCCCS(=O)(=O)[O-])c2ccc3ccccc3c21 [ICG, sodium 4-[2-[(1E,3E,5E,7Z)-7-[1,1-dimethyl-3-(4-sulfonatobutyl)benzo[e]indol-2-ylidene]hepta-1,3,5-trienyl]-1,1-imethylbenzo[e]-indol-3-ium-3-yl]butane-1-sulfonate]
route of excretion [1]: excreted exclusively in the bile | n-fold increase of ICG fluorescence in presence of PVP compared to water solution ([2]; ICG 0.025 mg/mL, Kollidon 17 PF 0.25 g/mL (1:10'000)): 1.32 n-fold | n-fold increase of ICG fluorescence in presence of PVP compared to water solution ([2]; ICG 0.06 mg/mL, Kollidon 17 PF 0.25 g/mL (1:4'166)): 1.68 n-fold | n-fold increase of ICG fluorescence in presence of PVP compared to water solution ([2]; ICG 0.15 mg/mL, Kollidon 17 PF 0.25 g/mL (1:1'666)): 2.2 n-fold
